{"source": "ChEMBL document CHEMBL1137626", "about": "“Identifying common metalloprotease inhibitors by protein fold types using Fourier transform mass spectrometry” (Bioorg Med Chem Lett, 2007)", "assay": "Inhibition of thermolysin by enzcheck protease assay"}
{"smiles": "CC(C)C[C@H](NP(=O)(O)O[C@@H]1O[C@@H](C)[C@H](O)[C@@H](O)[C@H]1O)C(=O)N[C@@H](Cc1c[nH]c2ccccc12)C(=O)O", "note": "[PHOSPHORAMIDON]", "values": [{"measurement": "IC50", "result": 13.8, "unit": "µM"}, {"measurement": "Ki", "result": 6.98, "unit": "µM"}]}
{"smiles": "CCCCC[C@H](CC(=O)NO)C(=O)N[C@H](C(=O)N1CCC[C@H]1CO)C(C)C", "note": "[ACTINONIN]", "values": [{"measurement": "IC50", "result": 18.3, "unit": "µM"}, {"measurement": "Ki", "result": 4.88, "unit": "µM"}]}
